From patent US6319910A, “Method for inhibiting cyclooxygenase-2 and tumor necrosis factor alpha” (Hospital for Joint Diseases, priority 1998, dated 2001)

What was measured:
TNFα = TNFα release in the medium by HEK 293 cells permanently transfected with human proTNFα (ELISA); assay type: cell-based; conditions: words
Experimental: HEK 293 cells were transfected with the proTNFα cDNA (wild) to prepare a stable cell line. […] A mutant form of proTNFα cDNA which could not be cleaved by the endogenous TNFα convertase (TACE) to release soluble TNFα was also transfected in separate human HEK 293 cells. The soluble TNFα was estimated by ELISA from the wild type and mutant transfected cells from the medium (FIG. 6).
HEK 293 cells were grown as previously described by American Type Culture Collection (ATCC). […] The HEK 293 cells were incubated with CMT-3 to examine the effects of CMT-3 on TNFα release in the medium.
HEK 293 cells were grown under the conditions previously described by ATCC. Various compounds, including CMT-3 and doxycycline/minocyclines were incubated with proTNFα transfected HEK 293 cells releasing TNFα in the medium at 16 hours. […] Soluble TNFα was estimated by ELISA from the medium.

COX-2 [1] = assay: Expression/modification (size) of COX-2 in LPS-stimulated murine macrophages, Western blot; assay type: cell-based; conditions: LPS 100 ng/ml
Experimental: RAW 263.7 cells were grown as previously described (Amin et al, 1995b). Murine macrophages stimulated with 100 ng/ml LPS were incubated with CMT-3 or tunicamycin (a glycosylation inhibitor). […] Nitrite and PGE2 were estimated as previously described (Amin et al, 1995b). It is quite possible that CMT-3 may inhibit COX-2 and PGE2 production by post translational modification of COX-2 which may be similar to tunicamycin inhibition. The data represents the mean±SD evaluated by T test (n=3).
Murine macrophage cells were cultivated as previously described (Amin et al, 1995b). […] cells were stimulated with 100 ng/ml of LPS in the presence of CMT-3, CMT-5 and glycosylation inhibitor, tunicamycin. The cells were grown for 16 hr and harvested. The cell free extracts were prepared as previously described (Amin et al, 1995b). In FIG. 4A, 50 μg of protein was loaded in each well and run on SDS-PAGE gels and blotted onto Western blots using a specific anti COX-2 antibody as previously described (Amin et al, 1997a). The positive control is a standard COX-2. […] The size is approximately 2000 D smaller (CMT-3 form) than the native COX-2 shown as a standard. […] These experiments indicate that CMT-3 induces modification of the COX-2 protein. The SDS PAGE analysis and Western blotting of COX-2 was carried out as described above.

COX-2 [2] = biological target: T1, COX-2 (Mus musculus, UniProt Q05769); assay: COX-2 specific activity in cell-free extracts of LPS-stimulated RAW 264.7 cells (PGE2 by RIA); assay type: biochemical, murine
T1 construct: using total unfractionated cell extracts; endogenous in cells; host or cells: RAW 264.7 cells, LPS-induced; cell-free extract
T1 sequence (Q05769 18-604): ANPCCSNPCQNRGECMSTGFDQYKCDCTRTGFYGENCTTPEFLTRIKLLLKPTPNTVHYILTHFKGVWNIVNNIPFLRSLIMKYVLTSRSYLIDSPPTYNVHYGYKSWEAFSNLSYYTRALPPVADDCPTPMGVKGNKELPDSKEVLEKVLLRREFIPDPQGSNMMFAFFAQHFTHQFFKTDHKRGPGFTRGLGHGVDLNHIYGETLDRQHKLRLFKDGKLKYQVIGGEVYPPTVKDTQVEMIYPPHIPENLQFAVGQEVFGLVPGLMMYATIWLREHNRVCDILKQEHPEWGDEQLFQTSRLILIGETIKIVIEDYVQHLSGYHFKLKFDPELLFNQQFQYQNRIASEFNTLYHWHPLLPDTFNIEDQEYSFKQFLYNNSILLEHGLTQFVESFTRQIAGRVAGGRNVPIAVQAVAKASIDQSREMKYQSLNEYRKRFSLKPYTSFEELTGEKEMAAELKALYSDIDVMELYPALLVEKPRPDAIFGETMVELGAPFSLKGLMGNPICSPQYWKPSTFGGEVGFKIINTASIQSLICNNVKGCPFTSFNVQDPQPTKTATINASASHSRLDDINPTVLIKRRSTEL
Experimental: Raw 264.7 cells were stimulated with LPS and cell-free extracts were prepared as follows. RAW 264.7 cells were induced with LPS (100 ng/ml) in the presence or absence of tetracyclines or hydrocortisone for 14-20 hours. Following induction, the cells were pelleted at 4° C. and resuspended in Tris buffer: 10 mM, pH 7.4 containing 10 μg/ml each of chymostatin, antipain, leupeptin and pepstatin, 1 mM DDT and 1 mM PMSF. Cells were lysed in a Polytron PA 1200 homogenizer (Kinematica AG, Switzerland) with the cocktail of protease inhibitors after 3 cycles of rapid freeze-thawing. The lysate was centrifuged at 18,000 at 4° C. in an eppendorf centrifuge, and the resulting supernatant was used as cell-free extracts. The protein was measured by BCA assay reagent (Pierce, Rockford, Ill.) using BSA as standard. […] The specific enzyme activity was defined as ng of PGE2 released/mg protein/37° C. for 20 minutes.
RAW 264.7 cells were stimulated with 1 μg/ml of LPS for 16 hours and cell-free extracts were prepared as described above. The extracts were incubated with different modulators for 20 minutes at 37° C. before adding the substrate to initiate the enzyme reaction, which was terminated after 30 minutes by heat inactivation. The data represent one of the two experiments, the PGE2 analysis from each sample was done in triplicates n=3. The p value is a comparison between control and experimentals.

bovine chondrocytes = assay: Nitrite (NO) production in LPS stimulated bovine chondrocytes; assay type: cell-based; conditions: FIGS. 3 and 9; LPS 100 μg/ml; words

NC(=O)C1=C(O)C2(O)C(=O)C3=C(O)c4c(O)cccc4CC3CC2CC1=O (stereo not drawn) [CMT-3, 6-demethyl-6-deoxy-4-dedimethylaminotetracycline]
Effect on TNFα release in the medium (TNFα; FIG. 7): inhibits TNFα release in the medium in a dose dependent manner | Effect on spontaneous TNFα release (TNFα; FIG. 8, 16 hours): inhibit the spontaneous TNFα release | Inhibition of TNFα (summary statement) (TNFα; HEK 293 cells transfected with proTNFα cDNA, low levels): inhibiting TNFα | Effect on COX-2 expression (COX-2 [1]; FIG. 2, words): inhibit | Decrease in size of COX-2 versus native COX-2 (COX-2 [1]; FIG. 4A, 16 hr, Western blot): approximately 2000 D | Effect on size of COX-2 (COX-2 [1]; FIG. 4A, 16 hr, Western blot, words): decrease in the size of COX-2 | Effect on specific activity of COX-2 (COX-2 [2]; CMT-3 27 μM, CMT-8 27 μM, aspirin 56 μM, indomethacin 28 μM, words): significantly inhibited the specific activity of COX-2 | COX-2 Specific Activity (COX-2 [2]; Table 3, cell-free extracts, 10 μg (aspirin amount not given)): 2.8 ± 4.0 PGE2 ng/mg protein | Effect on NO production (bovine chondrocytes): inhibit NO and PGE2 production
